Data on 19 molecules can be found in patent US20150232420A1, “TRANSGLUTAMINASE TG2 INHIBITORS, PHARMACEUTICAL COMPOSITIONS, AND METHODS OF USE THEREOF” (priority 2012, published 2015).

The test has as its target T1, human TG2 (Homo sapiens, UniProt P21980).
T1 sequence (P21980 1-687): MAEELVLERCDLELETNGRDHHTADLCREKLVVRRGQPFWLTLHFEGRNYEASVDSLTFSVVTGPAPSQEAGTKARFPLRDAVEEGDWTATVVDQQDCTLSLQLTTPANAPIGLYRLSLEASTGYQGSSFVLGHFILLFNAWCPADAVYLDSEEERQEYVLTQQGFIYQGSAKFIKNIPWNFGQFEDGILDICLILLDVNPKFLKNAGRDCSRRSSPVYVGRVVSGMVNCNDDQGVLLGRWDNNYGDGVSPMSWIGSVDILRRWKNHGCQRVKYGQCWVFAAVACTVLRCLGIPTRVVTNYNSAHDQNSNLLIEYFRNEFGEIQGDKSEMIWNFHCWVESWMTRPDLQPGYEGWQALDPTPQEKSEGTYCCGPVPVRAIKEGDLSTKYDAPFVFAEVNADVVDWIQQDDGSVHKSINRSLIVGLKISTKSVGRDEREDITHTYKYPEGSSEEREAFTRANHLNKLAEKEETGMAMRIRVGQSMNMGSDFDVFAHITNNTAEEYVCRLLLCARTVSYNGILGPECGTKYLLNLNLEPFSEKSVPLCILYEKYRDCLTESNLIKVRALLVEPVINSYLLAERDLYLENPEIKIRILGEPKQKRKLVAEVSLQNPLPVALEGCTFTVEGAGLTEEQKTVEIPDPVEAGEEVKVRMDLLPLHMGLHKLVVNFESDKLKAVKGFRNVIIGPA
Nature of the test: fluorescent screening assay for human TG2. It is filed as biochemical. Particulars: Table 7; 20 nM TG2, 37° C.; read-out: IC50. On the procedure: The fluorescent screening assay for human TG2 was performed as described herein: Assay conditions were 20 nM TG2, 8 μM N,N-dimethylated Casein (NMC) and 16 μM K×D (used for all transglutaminase assays) in 25 mM Hepes, pH 7.4, 250 mM NaCl, 2 mM MgCl2, 0.5 mM CaCl2, 0.2 mM DTT, 0.05% Pluronic F-127 at 37° C. A time point was taken with a microplate reader (Safire or Ultra, Tecan; ex: 350 nm, em: 535 nm) every 3 minutes for up to 2 hours and the initial linear reaction progress was used to determine the reaction velocity as a measure for enzyme activity. Assay conditions were identical for human TG6 and similar for human TG1 and mouse TG2 apart from enzyme concentration (mTG2 at 5 nM; TG1 at 10 nM) and CaCl2 concentration (0.2 mM for mTG2; 0.05 mM for TG1). Factor XIIIa was activated using 0.1 μg/μl thrombin (Sigma) in 35 mM Tris pH 8.0 for 20 min at 30° C. and the transamidation reaction was performed with 20 nM Factor XIIIa in 50 mM Tris pH 8.0, 1.25 mM CaCl2, 0.05% Pluronic, 0.2 mM DTT. TG3 was activated with 0.02 μg/μl thrombin under the same conditions as Factor XIIIa and assay conditions were 10 nM TG3 in 50 mM Hepes, pH 8, 20 mM CaCl2, 0.2 mM DTT, 0.05% Pluronic F-127.
By IC50 is commonly meant the concentration at which inhibition is half-maximal. Turning to `C=CC(=O)NCCCC[C@H](NC(=O)OCc1ccccc1)C(=O)N1CCC(F)(F)CC1` [benzyl N-[(2S)-1-(4,4-difluoropiperidin-1-yl)-1-oxo-6-(prop-2-enamido)hexan-2-yl]carbamate], the IC50 lay in the range of 100 to 1000 nM.

`C=CC(=O)NCCCC[C@H](NC(=O)OCc1ccccc1)C(=O)O` [(2S)-2-{[(benzyloxy)carbonyl]amino}-6-(prop-2-enamido)hexanoic acid]: the IC50 lay within 1000 to 100000 nM.

Consider `C=CC(=O)NCCCC[C@H](NC(=O)OCc1ccc(C(C)(C)C)cc1)C(=O)O` [(2S)-2-({[(4-tert-butylphenyl)methoxy]carbonyl}amino)-6-(prop-2-enamido)hexanoic acid], for which the IC50 fell in the range of 1000 to 100000 nM.

With `C=CC(=O)NCCCC[C@H](NC(=O)OCc1ccccc1)C(=O)N1CCN(C(=O)C2CCOCC2)CC1` [benzyl N-[(2S)-1-[4-(oxane-4-carbonyl)piperazin-1-yl]-1-oxo-6-(prop-2-enamido)hexan-2-yl]carbamate], the IC50 was 100 to 1000 nM.

As to `C=CC(=O)N1CCC(CC(NC(=O)OC(C)(C)C)C(=O)O)CC1` (stereo not shown) [2-{[(tert-butoxy)carbonyl]amino}-3-[1-(prop-2-enoyl)piperidin-4-yl]propanoic acid], the IC50 lay in the range of 1000 to 100000 nM.

As for `C=CC(=O)NCCCC[C@H](NC(C)=O)C(=O)N1CCN(c2cccc(C)n2)CC1` [N-[(5S)-5-acetamido-6-[4-(6-methylpyridin-2-yl)piperazin-1-yl]-6-oxohexyl]prop-2-enamide], the IC50 was in the range of 100 to 1000 nM.

On to `C=CC(=O)NCCCC[C@H](NC(=O)OCc1cccc2ccccc12)C(=O)O` [(2S)-2-{[(naphthalen-1-ylmethoxy)carbonyl]amino}-6-(prop-2-enamido)hexanoic acid], for which the IC50 lay within 1000 to 100000 nM.

Regarding `C=CC(=O)NCCCC[C@H](NC(=O)OCc1ccccc1Cl)C(=O)O` [(2S)-2-({[(2-chlorophenyl)methoxy]carbonyl}amino)-6-(prop-2-enamido)hexanoic acid], the IC50 was 1000 to 100000 nM.

As to `C=CC(=O)NCCCC[C@H](NC(=O)OCc1cccc(C(F)(F)F)c1)C(=O)O` [(2S)-6-(prop-2-enamido)-2-[({[3-(trifluoromethyl)phenyl]methoxy}carbonyl)amino]hexanoic acid], the IC50 lay within 1000 to 100000 nM.

With `C=CC(=O)NCCCC[C@H](NC(=O)OCc1ccccc1C(F)(F)F)C(=O)O` [(2S)-6-(prop-2-enamido)-2-[({[2-(trifluoromethyl)phenyl]methoxy}carbonyl)amino]hexanoic acid], the IC50 fell in the range of 1000 to 100000 nM.

For `C=CC(=O)NCCCC[C@@H](NC(=O)OCc1ccccc1)C(=O)O` [(2R)-2-{[(benzyloxy)carbonyl]amino}-6-(prop-2-enamido)hexanoic acid], the IC50 is 1000 to 100000 nM.

Regarding `C=CC(=O)NCCCC[C@H](NC(=O)OCc1ccc(C)cc1)C(=O)O` [(2S)-2-({[(4-methylphenyl)methoxy]carbonyl}amino)-6-(prop-2-enamido)hexanoic acid], the IC50 was 1000 to 100000 nM.

In the case of `C=CC(=O)NCCCC[C@H](NC(=O)OCc1ccccc1)C(=O)N1CCOCC1` [benzyl N-[(2S)-1-(morpholin-4-yl)-1-oxo-6-(prop-2-enamido)hexan-2-yl]carbamate], the IC50 lay within 100 to 1000 nM.

In the case of `C=CC(=O)NCCCC[C@H](NC(=O)OCc1ccccc1)C(=O)N1CCN(c2ncccc2C(F)(F)F)CC1` [benzyl N-[(2S)-1-oxo-6-(prop-2-enamido)-1-{4-[3-(trifluoromethyl)pyridin-2-yl]piperazin-1-yl}hexan-2-yl]carbamate], the IC50 lay in the range of 100 to 1000 nM.

On to `C=CC(=O)NCCCC[C@H](NC(=O)OCc1ccc(F)cc1)C(=O)O` [(2S)-2-({[(4-fluorophenyl)methoxy]carbonyl}amino)-6-(prop-2-enamido)hexanoic acid], for which the IC50 lay within 1000 to 100000 nM.

Consider `C=CC(=O)NCCCC[C@H](NC(=O)OC)C(=O)O` [(2S)-2-[(methoxycarbonyl)amino]-6-(prop-2-enamido)hexanoic acid], for which the IC50 lay in the range of 1000 to 100000 nM.

Consider `C=CC(=O)NCCCC[C@H](NC(=O)OCc1ccccc1)C(=O)N1CCCC1` [benzyl N-[(2S)-1-oxo-6-(prop-2-enamido)-1-(pyrrolidin-1-yl)hexan-2-yl]carbamate], for which the half-inhibitory concentration (IC50) is 100 to 1000 nM.

As to `C=CC(=O)NCCCC[C@H](NC(=O)OCc1ccccc1)C(=O)N1CCN(c2nccs2)CC1` [benzyl N-[(2S)-1-oxo-6-(prop-2-enamido)-1-[4-(1,3-thiazol-2-yl)piperazin-1-yl]hexan-2-yl]carbamate], the IC50 is 100 to 1000 nM.

On to `C=CC(=O)NCCCC[C@H](NC(=O)OCc1ccc(CCCC)cc1)C(=O)O` [(2S)-2-({[(4-butylphenyl)methoxy]carbonyl}amino)-6-(prop-2-enamido)hexanoic acid], for which the IC50 fell in the range of 1000 to 100000 nM.
